From patent publication US20040038950A1, “Pharmaceutical composition for treating IL-1 related diseases or disorders” (priority 2002, published 2004)

Assays:
MMP-3 mRNA = assay: RT-PCR of MMP-3 mRNA in chondrocytes; type: cell-based, human
Protocol: (§1) Chondrocytes were isolated from the knee joint of patient undergoing a knee replacement due to osteoarthritis. Cartilage was digested with 0.2% protease Type XIV (Sigma) for 1 hour, followed by 3-hour incubation with 0.2% collagenase Type IA (Sigma) at 37° C. Following the incubation, the undigested cartilage fragments were removed using a 70 μm Nylon sieve. Chondrocytes were washed with DPBS and maintained in monolayer culture for 7 days in Dulbecco's modified Eagle's medium (DMEM; Life Technologies Inc.) which contained 10% fetal bovine serum (FBS; Life Technologies), 100 units/ml penicillin-streptomycin (Life Technologies) and 25 μg/ml L-ascorbic acid (Sigma). All experiments were performed with primary or first passage cells. The preparation of chondrocytes in alginate beads was carried out with 4×10^6 cells per 1 ml of alginate. Alginate cultures were maintained for 7 days at 37° C., 5% CO2 and 95% humidity and incubated with various concentrations of DHEA (0, 10, 50 or 100 μM) for a varing period of time. DHEA was purchased from Sigma and used after dissolving either in ethanol or dimethyl sulfoxide (DMSO). After a desired incubation period, cells were harvested by solubilizing the alginate beads in citrate buffer (55 mM sodium citrate, 0.15 M NaCl, pH 7.0) for 10 min at 37° C. and by centrifugation (300 g, 5 min).
(§2) Total RNA from chondrocytes was extracted using RNeasy Mini Kit (QIAGEN). Reverse transcription from 1 μg of total RNA was conducted using First Strand cDNA Synthesis Kit (MBI Fermentas) according to manufacturer's recommendation with random hexamers. […] All reactions were determined to be in the linear range of amplification with the cycle number ranging from 14 to 30. The PCR products were analyzed by separation on a 2% agarose gel followed by ethidium bromide staining. Following electrophoresis, photographs were taken and analyzed using a densitometric program (TINA; Raytest Isotopenmeβgerate, Germany). […] After normalizing with respect to GAPDH, percentage increase or decrease was determined. […]

[1] = test system: patients diagnosed to have degenerative arthritis; assay: Topical application of DHEA to arthritic patient; type: in vivo, human; settings: for resting pain score: before 14.34; for joint effusion score: before 2.12; for medial joint line tenderness score: before 2.18; for motion pain score: before 8.11; for pain at ascending/descending stairs score: before 10.87
Protocol: Ten patients diagnosed to have degenerative arthritis were tested to investigate the therapeutic effect of DHEA in topical application. Testees had the symptoms including dolor of knee joint (resting or motion pain), swelling, deformation, tenderness, crepitation or stiffness of joint. Patients who had received intraarticular injection, steroid treatment or surgery within 1 month before this test were excluded, as well as those who had severe cardiac or liver diseases, kidney failure, gastrointestinal diseases, or poor systemic condition such as anomalotrophy. Besides, women who were pregnant or breast-feeding babies were excluded in this study.
The volunteers were randomly grouped into Group I and Group II, and subject to the experiment for topical application of DHEA. A portion of knee joint showing dolor symptom was coated with either 5% DHEA or PBS (phosphate buffered saline) twice a day for 1 month. Any alteration of symptom was checked prior to the application, 1 week and then again 1 month during the application regimen.
The severity of pain was scored ranging from 0 (most severe pain) to 20 points (no pain) at an interval of 5 points.
In addition, both joint effusion and medial joint-line tenderness were recorded during a physical test administered by a doctor based on the point rating scale: highness, 4; medium, 3; slightness, 2; and not found, 0.
The opinions on symptom were recorded as 5 categories relying on the subjective opinions of patients and the opinions of doctors regarding both dolor of patients and the results of physical tests: superiority, goodness, mediocrity, poorness and exceeding poorness.
In addition, the assessment regarding the level of improvement on symptoms was recorded in accordance with the following criteria: 3-step improvement, “exceeding improvement”; 2-step improvement, “improvement”; 1-step improvement, “slight improvement”; “no change”; and “aggravation”.

MMP-1 = assay: Western blot of MMP-1 in chondrocyte lysates; type: cell-based, human; settings: 0, 10 or 100 μ DHEA, three days
Protocol: as §1, with “After a desired incubation period, cells were harvested by solubilizing the alginate beads in citrate buffer (55 mM sodium citrate, 0.15 M NaCl, pH 7.0) for 10 min at 37° C. and by centrifugation (300 g, 5 min).” left out
(§3) To investigate the effect of DHEA on the protein concentration, Western blot analysis was performed. […] Protein concentration of the supernatant was determined by Bio-Rad protein assay (Bio-Rad, USA) using bovine serum albumin (BSA) as a standard. […]

TIMP-1 = assay: Western blot of TIMP-1 in chondrocyte lysates; type: cell-based, human; settings: 0, 10 or 100 μ DHEA, three days
Protocol: as §1, with “After a desired incubation period, cells were harvested by solubilizing the alginate beads in citrate buffer (55 mM sodium citrate, 0.15 M NaCl, pH 7.0) for 10 min at 37° C. and by centrifugation (300 g, 5 min).” left out
as §3

type II collagen mRNA = assay: RT-PCR of type II collagen mRNA in chondrocytes; type: cell-based, human; settings: for type II collagen gene up-regulation, enhancement: 72 hours
Protocol: as §1, §2

[2] = Group I (5 patients), 1 month after application
[3] = Group I, topical, 1 month after application
[4] = Group I, topical, 1 week after application
[5] = Group I, topical, 1 week and 1 month vs before application

C[C@]12CC[C@H](O)CC1=CC[C@@H]1[C@@H]2CC[C@]2(C)C(=O)CC[C@@H]12 [DHEA, dehyroepiandrosterone]
MMP-3 mRNA expression, decreased by (MMP-3 mRNA; 100 μM, after 24 hr of culture): 73% | inhibitory activity of DHEA on the MMP-3, increase by (MMP-3 mRNA; 100 μM, after 72 hr): 131% | MMP-3 production, inhibition (MMP-3 mRNA; 10-100 μM, 72 hours, not dose-dependent): 82-93% | opinion of doctor: no change [1, 2]: 4 persons | opinion of doctor: slight improvement [1, 2]: 1 person | opinion of patient: aggravation [1, 2]: 1 person | opinion of patient: no change [1, 2]: 3 persons | opinion of patient: slight improvement [1, 2]: 1 person | resting pain score ([1]; Group I, topical 5% DHEA twice a day, 1 week after application): 15.29 points | joint effusion score [1, 3]: 2.27 points | medial joint line tenderness score [1, 3]: 2.54 points | motion pain score [1, 3]: 8.51 points | pain at ascending/descending stairs score [1, 3]: 10.49 points | resting pain score [1, 3]: 15.02 points | joint effusion score [1, 4]: 1.98 points | medial joint line tenderness score [1, 4]: 2.11 points | motion pain score [1, 4]: 8.34 points | pain at ascending/descending stairs score [1, 4]: 10.11 points | change of joint effusion [1, 5]: not a significant change | change of medial joint line tenderness [1, 5]: not a significant change | change of motion pain [1, 5]: not a significant change | change of pain at ascending/descending stairs [1, 5]: not a significant change | change of resting pain [1, 5]: not a significant change | MMP-1 protein level (Western blot) (MMP-1): reduced with increasing DHEA concentration | translational level of mature TIMP-1 (Western blot) (TIMP-1): increased with increasing concentration of DHEA | type II collagen gene up-regulation, enhancement (type II collagen mRNA; 50 μM): 132% | type II collagen gene up-regulation, enhancement (type II collagen mRNA; 100 μM): 146% | Emax at 100 µM (type II collagen mRNA; Homo sapiens, Chondrocyte, 100 μM, after 48 hr, read-out: type II collagen mRNA level, maximal stimulation): 276%
